Data published in ChEMBL document CHEMBL3621066, “Vascular barrier protective effects of 3-N- or 3-O-cinnamoyl carbazole derivatives” (Bioorg Med Chem Lett, 2015).

Key:
HUVEC [1] = experiment: Cytotoxicity against human HUVEC assessed as cell viability up to 20 uM after 24 hrs; type: cell-based
HUVEC [2] = experiment: Antiinflammatory activity in human HUVEC assessed as inhibition of HMGB1-induced human neutrophils migration into cells at 10 uM after 6 hrs using crystal violet staining; type: functional
Mus musculus [3] = experiment: Antiinflammatory activity in mouse assessed as inhibition of HMGB1-induced hyperpermeability of Evans blue dye to peritoneal cavity at 342.4 ug/kg administered 16 hrs after HMGB1 challenge measured after 6 hrs; type: functional
Mus musculus [4] = experiment: Antiinflammatory activity in mouse assessed as inhibition of HMGB1-induced leukocyte migration into peritoneal cavity at 342.4 ug/kg administered 16 hrs after HMGB1 challenge measured after 6 hrs by light microscopic analysis; type: functional
HUVEC [5] = experiment: Inhibition of HMGB1-induced hyperpermeability of Evans blue-bound albumin in human HUVEC at 10 uM after 6 hrs by spectrophotometric analysis relative to control; type: functional
Mus musculus [6] = experiment: Antiinflammatory activity in mouse assessed as inhibition of HMGB1-induced leukocyte migration into peritoneal cavity at 372.4 ug/kg administered 16 hrs after HMGB1 challenge measured after 6 hrs by light microscopic analysis; type: functional
Mus musculus [7] = experiment: Antiinflammatory activity in mouse assessed as inhibition of HMGB1-induced hyperpermeability of Evans blue dye to peritoneal cavity at 372.4 ug/kg administered 16 hrs after HMGB1 challenge measured after 6 hrs; type: functional
Mus musculus [8] = experiment: Antiinflammatory activity in mouse assessed as inhibition of HMGB1-induced hyperpermeability of Evans blue dye to peritoneal cavity at 402.4 ug/kg administered 16 hrs after HMGB1 challenge measured after 6 hrs; type: functional
Mus musculus [9] = experiment: Antiinflammatory activity in mouse assessed as inhibition of HMGB1-induced leukocyte migration into peritoneal cavity at 402.4 ug/kg administered 16 hrs after HMGB1 challenge measured after 6 hrs by light microscopic analysis; type: functional
Mus musculus [10] = experiment: Antiinflammatory activity in mouse assessed as inhibition of HMGB1-induced hyperpermeability of Evans blue dye to peritoneal cavity at 403.4 ug/kg administered 16 hrs after HMGB1 challenge measured after 6 hrs; type: functional
Mus musculus [11] = experiment: Antiinflammatory activity in mouse assessed as inhibition of HMGB1-induced leukocyte migration into peritoneal cavity at 403.4 ug/kg administered 16 hrs after HMGB1 challenge measured after 6 hrs by light microscopic analysis; type: functional

Row | SMILES | Activity (HUVEC [1]) | inhibition at 10 µM (HUVEC [2]) [%] | inhibition in vivo at 0.3424 mg/kg (Mus musculus [3]) [%] | inhibition in vivo at 0.3424 mg/kg (Mus musculus [4]) [%] | inhibition at 10 µM (HUVEC [5]) [%] | inhibition in vivo at 0.3724 mg/kg (Mus musculus [6]) [%] | inhibition in vivo at 0.3724 mg/kg (Mus musculus [7]) [%] | inhibition in vivo at 0.4024 mg/kg (Mus musculus [8]) [%] | inhibition in vivo at 0.4024 mg/kg (Mus musculus [9]) [%] | inhibition in vivo at 0.4034 mg/kg (Mus musculus [10]) [%] | inhibition in vivo at 0.4034 mg/kg (Mus musculus [11]) [%]
1 | COc1ccc(/C=C/C(=O)Nc2ccc3[nH]c4ccccc4c3c2)cc1 | Non-toxic | 4.8 | 1.4 | 0.8 | 3.6 | – | – | – | – | – | –
2 | COc1ccc(/C=C/C(=O)Nc2ccc3[nH]c4ccccc4c3c2)cc1OC | Non-toxic | 43.5 | – | – | 42.9 | 39 | 26.2 | – | – | – | –
3 | COc1cc(/C=C/C(=O)Nc2ccc3[nH]c4ccccc4c3c2)cc(OC)c1OC | Non-toxic | 62 | – | – | 68.4 | – | – | 57.5 | 60.3 | – | –
4 | COc1cc(/C=C/C(=O)Oc2ccc3[nH]c4ccccc4c3c2)cc(OC)c1OC | Non-toxic | 65.4 | – | – | 70.2 | – | – | – | – | 58.9 | 61.2
